Measurements reported in PMC6510728, “Efficacy of the novel CDK7 inhibitor QS1189 in mantle cell lymphoma” (Scientific Reports, 2019).
Like-named read-outs stand apart in the source and are kept apart here.

What was measured:
[1] = test system: patients with relapsed or refractory MCL; set-up: method as in PMID 23782157; conditions: cited from earlier work
Mino cells = assay: MTT assay, cell viability; format: cell-based; conditions: Homo sapiens, 72 h, read-out: IC50 values (nM, mean ± S.D.)
Description: (§1) The human lymphoma cell lines (Mino, Maver-1, Jeko-1, Z-138, OCI-Ly7, OCI-Ly10, SU-DHL-6, SU-DHL-8, U2932, Daudi, Namalwa, Raji, and Ramos) were purchased from the American Type Culture Collection (ATCC, Manassas, VA, USA) and DSMZ (Braunschweig, Germany). Cells were cultured in RPMI1640 medium containing 10% foetal bovine serum, 100 U/mL penicillin, and […] streptomycin (Invitrogen, Carlsbad, CA, USA) at 37 °C in an atmosphere of 5% CO2. OCI-Ly7 and OCI-Ly10 were cultured in IMDM. Tests for mycoplasma contamination were negative. Ibrutinib and venetocalx were purchased from Selleck Chemicals (Houston, TX, USA).
(§2) Cells (2 × 10^4) were seeded into 96-well sterile plastic plates overnight and then treated with the relevant drugs. After 72 h, 15 μL of MTT solution (5 mg/mL) was added to each well and the plates were incubated for 4 h. Crystalline formazan was solubilized with 100 μL of 10% (w/v) SDS solution for 24 h. Absorbance at 595 nm was read spectrophotometrically using a microplate reader. The results represent at least three independent experiments, and the error bars signify the standard deviation from the mean. The IC50 values were determined using GraphPad Prism software (GraphPad, Inc., La Jolla, CA, USA).

Z-138 cells = assay: MTT assay, cell viability; format: cell-based; conditions: Homo sapiens, 72 h, read-out: IC50 values (nM, mean ± S.D.)
Description: as §1, §2

Jeko-1 cells = assay: MTT assay, cell viability; format: cell-based; conditions: Homo sapiens, 72 h, read-out: IC50 values (nM, mean ± S.D.)
Description: as §1, §2

Maver-1 cells = assay: MTT assay, cell viability; format: cell-based; conditions: Homo sapiens, Maver1, 72 h, read-out: IC50 values (nM, mean ± S.D.)
Description: as §1, §2

[2] = test system: patients with relapsed or refractory MCL; set-up: method as in PMID 28095146; conditions: phase I first-in-human study; cited from earlier work
U2932 cells = assay: MTT assay, cell viability; format: cell-based; conditions: Homo sapiens, 72 h, read-out: IC50 values (nM, mean ± S.D.)
Description: as §1, §2

SU-DHL-6 cells = assay: MTT assay, cell viability; format: cell-based; conditions: Homo sapiens, 72 h, read-out: IC50 values (nM, mean ± S.D.)
Description: as §1, §2

OCI-Ly10 cells = assay: MTT assay, cell viability; format: cell-based; conditions: Homo sapiens, 72 h, read-out: IC50 values (nM, mean ± S.D.)
Description: as §1, §2

[3] = test system: venetoclax-resistant cells (Mino/VR-1, Mino/VR-2, Maver-1/VR-1, Maver-1/VR-2); assay: MTT assay in cells with acquired resistance to venetoclax; format: cell-based, human; conditions: all resistant cells vs parental Mino and Maver-1, 72 h
Description: Maver-1/VR cells were established by chronic, repeated exposure to increasing venetoclax doses up to 1 μM for more than 8 months. Maver-1/VR cells were cloned by single-cell culture, and these resistant sublines were designated as Maver-1/VR-1 and Maver-VR-2. In all studies, resistant cells were cultured in drug-fee medium for >1 week to eliminate the effects of venetoclax. The genetic identity of each subclone with the parental cells was verified by short tandem repeat (STR) analysis conducted at Cosmogenetech (Cosmogenetech co. Ltd., Seoul, Korea) according to established protocols.
as §2

IC50 (SU-DHL-6 cells) [nM]	IC50 (OCI-Ly10 cells) [nM]	Compound	best overall response rate [1] [%]	complete response rate [1] [%]	median progression-free survival [1] [months]	IC50 (Mino cells) [nM]	IC50 (Z-138 cells) [nM]	IC50 (Jeko-1 cells) [nM]	IC50 (Maver-1 cells) [nM]	best overall response rate [2] [%]	complete response rate [2] [%]	median progression-free survival [2] [months]	IC50 (U2932 cells) [nM]	fold higher resistance to venetoclax than the parental cells [3]
		C=CC(=O)N1CCC[C@@H](n2nc(-c3ccc(Oc4ccccc4)cc3)c3c(N)ncnc32)C1 [Ibrutinib, ibrutinib]	68	21	13.9	> 1000	> 10000	> 10000	> 10000					
66.9	35.3	CC1(C)CCC(CN2CCN(c3ccc(C(=O)NS(=O)(=O)c4ccc(NCC5CCOCC5)c([N+](=O)[O-])c4)c(Oc4cnc5[nH]ccc5c4)c3)CC2)=C(c2ccc(Cl)cc2)C1 [Venetoclax, venetoclax]				275 ± 62.9	> 1000	> 1000	2.5 ± 0.4	75	21	14	121	10–100 fold
